# From PMC8910920 (International Journal of Molecular Sciences, 2022)
# How the values were obtained:
# [1] = target: T1, hCB2 (Homo sapiens, UniProt P34972); experiment: Radioligand binding assay, CHO cells, hCB2
# T1 construct: host or cells: CHO
# Description: To define whether β–lactam derivative RGM8-51 could bind to CGRPR, CB2 and M3 receptors, in vitro binding assays were performed, using CHO cell lines transfected with these receptors. The degree of binding was determined by using specific radioligands for each receptor (Table 2, footnote).
# These studies were subcontracted to Eurofins-CEREP or Eurofins-PANLABS. Briefly, agonists and antagonist assays were performed in cell cultures overexpressing the corresponding channel (CHO: TRPV1 and TRPA1; HEK293: TRPV3 and ASIC3). In vitro pharmacology, cellular channel functional assays: the compound was prepared in assay buffer to the final concentration, 10 μM. […] The agonist assay was conducted on fluorimeter instruments where the test compound, vehicle controls, and reference agonist were added to the assay plate after a fluorescence baseline was established. […] For the antagonist assay, the compound was pre-incubated for five minutes at room temperature, and then challenged with the EC80 concentration of the reference agonist after establishment of a fluorescence baseline. […] Binding assay results are expressed as a percent of control specific binding. […] Aqueous solubility (μM) was determined by comparing the peak area of the principal peak in a calibration standard (200 μM) containing organic solvent (methanol/water, 60/40, v/v) with the peak area of the corresponding peak in a buffer sample. […]
# [2] = tested on: CCI rats, heat hypersensitivity; experiment: CCI model of neuropathic pain, heat sensitivity (Hargreaves test); assay type: in vivo, rat
# Description: The CCI model of neuropathic pain allowed the evaluation of the effect RGM8-51 on cold, heat and mechanical sensitivity, as assayed by the acetone test, the Hargreaves test, and the automatized von Frey test, respectively. RGM8-51 was applied either locally (i.pl.; 10 µg) in the affected paw or systemically (intraperitoneally, i.p., 10 and 30 mg/kg) and the effect evaluated before (Baseline) and after CCI surgery. The nocifensive response after administration of RGM8-51 was compared with that of vehicle, while non-operated animals and the uninjured (contralateral) hind paw in CCI animals were used as controls.
# Adult male Sprague-Dawley rats (weighing 200–220 g/6–8 weeks old) were used in these experiments. All experimental procedures were conducted according to the animal welfare guidelines of the European Community (European Directive 2010/63/UE) to minimize animal suffering and were approved by Universidad Complutense de Madrid and Comunidad de Madrid ethical committees on animal experimentation (PROEX 207.8/21). […]
# For behavioral testing, rats were placed in individual methacrylate boxes with a wire mesh floor, and after a period of 15 min acclimatization, the cold, heat and mechanical sensitivity of the ipsilateral and contralateral paws was determined. Cold sensitivity was assessed with the acetone test. In total, 100 µL acetone were locally applied to the plantar surface of the hind paw and the duration of the subsequent nocifensive response (licking, brushing, and flinching of the paw) was determined during 60 s. Acetone application and assessment were repeated 2 times with a 5 min interval and the sum of the two values was recorded. Heat sensitivity was determined with the Hargreaves test, which uses infrared light as a heat source, with a Hargreaves apparatus (Serie 8, Model 336, IITC Life Science, Woodland Hills, CA USA). The light beam was directed to the plantar surface of the hind paw and the time from the beginning of irradiation to the appearance of first paw withdrawal movement was measured (paw withdrawal latency). […]
# T1 sequence (P34972 whole entry): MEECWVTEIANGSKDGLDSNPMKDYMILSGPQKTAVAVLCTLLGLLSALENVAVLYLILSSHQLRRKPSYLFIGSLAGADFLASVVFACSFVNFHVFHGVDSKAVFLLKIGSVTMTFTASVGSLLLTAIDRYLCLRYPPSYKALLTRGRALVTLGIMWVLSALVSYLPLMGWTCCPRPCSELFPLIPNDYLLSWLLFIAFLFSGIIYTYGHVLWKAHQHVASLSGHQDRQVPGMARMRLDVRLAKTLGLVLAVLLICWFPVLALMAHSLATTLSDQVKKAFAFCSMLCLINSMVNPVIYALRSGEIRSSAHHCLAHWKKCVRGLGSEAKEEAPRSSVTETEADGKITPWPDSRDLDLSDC
structure (smiles),measurement,setting,value
"C[C@@H]1C(=O)N(C[C@H](Cc2ccccc2)N(Cc2ccccc2)Cc2ccccc2)[C@]1(Cc1ccccc1)C(=O)OC(C)(C)C [RGM8-51, 4(S)-Benzyl-3S-methyl-4-(tert-butoxy)carbonyl-1-[(2′S-dibenzylamino-3′-phenyl)prop-1′-yl]-2-oxoazetidine]","Binding hCB2 (%), inhibition of specific binding","[1]; 10 μM, radioligand [3H]WIN 55212-2",did not show significant affinity
same,inhibition at 10 µM,"[1]; radioligand [3H]WIN 55212-2, read-out: Binding hCB2 (%), inhibition of specific binding",7.3 ± 0.3%
same,heat hypersensitivity in CCI rats,"[2]; i.p. 10 and 30 mg/kg, dose-dependently",effective in decreasing hypersensitivity to heat
same,heat hypersensitivity in CCI rats,[2]; i.pl. 10 µg,did not influence the animal response to heat
same,heat perception in non-operated animals (baseline) or uninjured hind paw,"[2]; rat, in vivo",had no effect on heat perception
